Assay results taken from US20020055528A1, “Artemisinin analogs having antimalarial, antiproliferative, and antitumor activities and chemoselective methods of making the same” (priority 1999, published 2002).

What was measured:
Assay type in all cases: cell-based
[1] = test system: murine keratinocyte cell line PE; assay: Growth inhibition of PE cells, MTT assay; details: 100 nanomolar; compared with calcitriol; FIG. 5
Method: To determine the inhibitory effect of the compositions of the present invention on cell proliferation, screening assays were performed on a murine keratinocyte cell line PE. Cell line PE was chosen for its particular sensitivity to the induction of omithine decarboxylase (ODC) activity by the extensively characterized tumor promoter TPA. Cell line PE was derived from a papilloma-induced in female SENCAR mice by a standard skin initiation/promotion protocol, see Yuspa, S. H., et al., Carcinogenesis, 7:949-958 (1986). PE cell culture medium consisted of Eagle's minimal essential medium without calcium chloride (Whittaker Bioproducts, Walkersville, Mass.) supplemented with 8% chelexed fetal calf serum and 1% antibiotic-antimycotic (Gibco BRL) and the addition of CaCI2 to 0.05 mM Ca^++
MTT [3-(4,5-dimethylthiazol-2-yl)-2,5-diphenyltetraxolium bromide] was purchased from Sigma Chemical Co. (St. Louis, Mo.), and TPA was supplied by L.C. Services (Woburn, Mass.). L-[^14C]omithine ([…]) was from Amersham/Searle Corp. (Arlington Heights, Ill.). Chemical solvents used in all assays of biological activity were of the highest grade commercially available.
Growth curves, shown in FIG. 5, for PE cells treated with calcitriol and the C-10 carbon-substituted dimers VII-f, VII-g and VII-h generated by assay for the reduction of the tetrazolium-based compound MTT, see Charmichael, et al., Cancer Res., 47:936-942 (1987). A mitochondrial dehydrogenase reduces MTT to a blue formazan product with an absorbance maximum of 505 nm in DMSO; the number of viable cells can thus be determined spectrophotometrically. PE cells were seeded at a density of 5,000 cells/well in 50 IL of medium into 96-well microtiter plates. Twelve hours later, the medium was removed, and cells were treated with 100 μL of fresh medium into which the appropriate amount of calcitriol or analog dissolved in dimethyl sulfoxide (DMSO) had been added, with the concentration of DMSO held constant at 0.1 %. […] At 24-hour intervals following the initial treatment of the cells with compounds, 0.1 mg (50 μL of a 2 mg/mL solution) of MTT was added to each well. After 4 hours, the MTT was removed and DMSO added to dissolve the blue formazan dye. Using a microtiter plate reader, the A505 was then determined and cell number calculated from blank-subtracted absorbance values.

K-562 = assay: NCI 60 cell line screen (SRB), Leukemia
RPMI-8226 = assay: NCI 60 cell line screen (SRB), Leukemia; details: Table IV (LC50, PG=−50)
NCI-H226 = assay: NCI 60 cell line screen (SRB), Non-Small Cell Lung Cancer
NCI-H460 = assay: as above
COLO 205 = assay: NCI 60 cell line screen (SRB), Colon Cancer; details: PG=+50
HCT-116 = assay: NCI 60 cell line screen (SRB), Colon Cancer
SW-620 = assay: NCI 60 cell line screen (SRB), Colon Cancer
SF-268 = assay: NCI 60 cell line screen (SRB), CNS Cancer
SK-MEL2 = assay: NCI 60 cell line screen (SRB), Melanoma
UACC-257 = assay: NCI 60 cell line screen (SRB), Melanoma
UACC-62 = assay: NCI 60 cell line screen (SRB), Melanoma
OVCAR-4 = assay: NCI 60 cell line screen (SRB), Ovarian Cancer
SK-OV-3 = assay: NCI 60 cell line screen (SRB), Ovarian Cancer
CAKI-1 = assay: NCI 60 cell line screen (SRB), Renal Cancer
PC-3 = assay: NCI 60 cell line screen (SRB), Prostate Cancer
MCF7 = assay: NCI 60 cell line screen (SRB), Breast Cancer
MDA-MB231/ATCC = assay: NCI 60 cell line screen (SRB), Breast Cancer; details: MDA- (first line of MDA-MB231/ATCC)
[2] = test system: MB231/ATCC (second line of the wrapped label, with values of its own); assay: NCI 60 cell line screen (SRB), Breast Cancer
HS 578T = assay: NCI 60 cell line screen (SRB), Breast Cancer
MDA-MB-435 = assay: NCI 60 cell line screen (SRB), Breast Cancer
MDA-N = assay: NCI 60 cell line screen (SRB), Breast Cancer

In the case of `CC1=C(C=Cc2cccc(C=CC3=C(C)C4CCC(C)C5CCC6(C)OOC45C(O3)O6)c2)OC2OC3(C)CCC4C(C)CCC1C24OO3` (centres unmarked) [VII-h], the “antiproliferative activity in words” value [1] is reported as “at least as antiproliferative as calcitriol”, the Log10TGI (K-562; PG=0) is reported as −7.70 log10M and the Log10GI50 (K-562; PG=+50) is reported as −7.70 log10M. The Log10GI50 (K-562; Table IV (LC50, PG=−50)) was over −4.00 log10M, the Log10GI50 (RPMI-8226) was over −4.00 log10M and the Log10TGI (NCI-H226; PG=0) was over −4.00 log10M. It also gave a Log10GI50 (NCI-H226; PG=+50) of over −4.00 log10M, a Log10GI50 (NCI-H226; Table IV (LC50, PG=−50)) of over −4.00 log10M and a Log10TGI (NCI-H460; PG=0) of over −4.00 log10M. The “Log10 GI50 or Log10 LC50” value (NCI-H460; PG=+50) was −5.59 log10M, the Log10GI50 (COLO 205) was −7.88 log10M and the Log10TGI (HCT-116; PG=0) was −5.38 log10M. For the same molecule, the “Log10 GI50 (PG=+50) or Log10 LC50 (PG=−50), as given per row condition” value (HCT-116; PG=+50) was −7.53 log10M, the “Log10 GI50 (PG=+50) or Log10 LC50 (PG=−50), as given per row condition” value (HCT-116; Table IV (LC50, PG=−50)) was over −4.00 log10M and the Log10TGI (SW-620; PG=0) was over −4.00 log10M. The Log10GI50 (SW-620; PG=+50) was −7.59 log10M, the Log10TGI (SF-268; PG=0) was over −4.00 log10M and the Log10GI50 (SF-268; PG=+50) was −6.86 log10M. For the same molecule, the Log10TGI (SK-MEL2; PG=0) was −5.34 log10M, the “Log10 GI50 or LC50 (per conditions)” value (SK-MEL2; PG=+50) was −6.87 log10M and the “Log10 GI50 or LC50 (per conditions)” value (SK-MEL2; Table IV (LC50, PG=−50)) was over −4.00 log10M. For the same molecule, the Log10TGI (UACC-257; PG=0) was over −4.00 log10M, the “Log10 GI50 (PG=+50) or Log10 LC50 (PG=−50)” value (UACC-257; PG=+50) was −7.21 log10M and the “Log10 GI50 (PG=+50) or Log10 LC50 (PG=−50)” value (UACC-257; Table IV (LC50, PG=−50)) was over −4.00 log10M. For the same molecule, the Log10TGI (UACC-62; PG=0) was over −4.00 log10M, the Log10GI50 (UACC-62; PG=+50) was −6.91 log10M and the Log10GI50 (UACC-62; Table IV (LC50, PG=−50)) was over −4.00 log10M. The Log10GI50 (OVCAR-4; OVCAR-4, PG=+50) was −7.51 log10M, the Log10TGI (OVCAR-4; OVCAR−4, PG=0) was −6.31 log10M and the Log10GI50 (OVCAR-4; Table IV (LC50, PG=−50), OVCAR−4) was over −4.00 log10M. It also gave a Log10TGI (SK-OV-3; PG=0) of over −4.00 log10M, a Log10GI50 (SK-OV-3; Table IV (LC50, PG=−50)) of over −4.00 log10M and a Log10TGI (CAKI-1; PG=0) of over −4.00 log10M. It also gave a Log10GI50 (CAKI-1; PG=+50) of −6.28 log10M, a Log10GI50 (CAKI-1; Table IV (LC50, PG=−50)) of over −4.00 log10M and a Log10TGI (PC-3; PG=0) of over −4.00 log10M. The “Log10 GI50 (PG=+50) or LC50 (PG=−50)” value (PC-3; PG=+50) was −7.70 log10M, the “Log10 GI50 (PG=+50) or LC50 (PG=−50)” value (PC-3; Table IV (LC50, PG=−50)) was over −4.00 log10M and the Log10TGI (MCF7; PG=0) was −4.31 log10M. The Log10GI50 (MCF7; PG=+50) was −7.33 log10M, the Log10GI50 (MCF7; Table IV (LC50, PG=−50)) was over −4.00 log10M and the Log10TGI (MDA-MB231/ATCC; PG=0) was −5.35 log10M. The “Log10 GI50 or LC50 (per conditions)” value (MDA-MB231/ATCC; PG=+50) was −6.49 log10M, the “Log10 GI50 or LC50 (per conditions)” value (MDA-MB231/ATCC; Table IV (LC50, PG=−50)) was over −4.00 log10M and the Log10TGI ([2]; PG=0) was −5.72 log10M. It also gave a Log10GI50 ([2]; PG=+50) of −7.31 log10M, a Log10GI50 ([2]; Table IV (LC50, PG=−50)) of over −4.00 log10M and a Log10TGI (HS 578T; PG=0) of over −4.00 log10M. It also gave a Log10GI50 (HS 578T; PG=+50) of −7.41 log10M, a Log10GI50 (HS 578T; Table IV (LC50, PG=−50)) of over −4.00 log10M and a Log10TGI (MDA-MB-435; MDA-MB-435, PG=0) of over −4.00 log10M. The Log10GI50 (MDA-MB-435; MDA-MB−435, PG=+50) was −7.29 log10M, the Log10GI50 (MDA-MB-435; Table IV (LC50, PG=−50), MDA-MB-435) was over −4.00 log10M and the Log10TGI (MDA-N; PG=0) was −5.42 log10M. For the same molecule, the Log10GI50 (MDA-N; PG=+50) was −7.33 log10M and the Log10GI50 (MDA-N; Table IV (LC50, PG=−50)) was over −4.00 log10M.
